# Laboratory results as given in PubChem BioAssay (NCI).
#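 How tested: cells in 96-well plates exposed to compound for 48 hours at five concentrations. Abbreviation: GI50, concentration required for 50% inhibition of growth. At the TGI there is no net growth.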
# Experiments:
# Assay in all cases: inhibition of tumour cell growth, NCI panel, 48 h
# RPMI-8226 leukemia = tested on: RPMI-8226 leukemia
# HCT-116 colon = tested on: HCT-116 colon
# UACC-62 melanoma = tested on: UACC-62 melanoma
# OVCAR-5 ovarian = tested on: OVCAR-5 ovarian
# 786-0 renal = tested on: 786-0 renal
# IGROV1 ovarian = tested on: IGROV1 ovarian
# OVCAR-8 ovarian = tested on: OVCAR-8 ovarian
# DU-145 prostate = tested on: DU-145 prostate
# MCF7 breast = tested on: MCF7 breast
# SF-539 CNS = tested on: SF-539 CNS
# COLO 205 colon = tested on: COLO 205 colon
# LOX IMVI melanoma = tested on: LOX IMVI melanoma
# M14 melanoma = tested on: M14 melanoma
# EKVX NSCLC = tested on: EKVX NSCLC
# NCI-H460 lung = tested on: NCI-H460 lung
# SNB-19 CNS = tested on: SNB-19 CNS
# BT-549 breast = tested on: BT-549 breast
# SF-295 CNS = tested on: SF-295 CNS
# SN12C renal = tested on: SN12C renal
# T-47D breast = tested on: T-47D breast
# SW-620 colon = tested on: SW-620 colon
# U251 CNS = tested on: U251 CNS
# UO-31 renal = tested on: UO-31 renal
# SF-268 CNS = tested on: SF-268 CNS
# K-562 leukemia = tested on: K-562 leukemia
# SR leukemia = tested on: SR leukemia
# HT29 colon = tested on: HT29 colon
# HOP-92 NSCLC = tested on: HOP-92 NSCLC
# NCI-H522 lung = tested on: NCI-H522 lung
# NCI-H226 lung = tested on: NCI-H226 lung
# ACHN renal = tested on: ACHN renal
# MALME-3M melanoma = tested on: MALME-3M melanoma
# HS 578T breast = tested on: HS 578T breast
# UACC-257 melanoma = tested on: UACC-257 melanoma
# MDA-MB-435 = tested on: MDA-MB-435
# SK-OV-3 ovarian = tested on: SK-OV-3 ovarian
# OVCAR-4 ovarian = tested on: OVCAR-4 ovarian
# NCI/ADR-RES ovarian = tested on: NCI/ADR-RES ovarian
# A498 renal = tested on: A498 renal
# SK-MEL-2 melanoma = tested on: SK-MEL-2 melanoma
# HCT-15 colon = tested on: HCT-15 colon
# SNB-75 CNS = tested on: SNB-75 CNS
# A549 NSCLC = tested on: A549 NSCLC
# CAKI-1 renal = tested on: CAKI-1 renal
# MDA-MB-231 breast = tested on: MDA-MB-231 breast
# KM12 colon = tested on: KM12 colon
# TK-10 renal = tested on: TK-10 renal
# HCC-2998 colon = tested on: HCC-2998 colon
# CCRF-CEM leukemia = tested on: CCRF-CEM leukemia
# PC-3 prostate = tested on: PC-3 prostate
# SK-MEL-28 melanoma = tested on: SK-MEL-28 melanoma
# HOP-62 NSCLC = tested on: HOP-62 NSCLC
# OVCAR-3 ovarian = tested on: OVCAR-3 ovarian
# SK-MEL-5 melanoma = tested on: SK-MEL-5 melanoma
# NCI-H23 lung = tested on: NCI-H23 lung
# RXF 393 renal = tested on: RXF 393 renal
# MOLT-4 leukemia = tested on: MOLT-4 leukemia
# HL-60(TB) leukemia = tested on: HL-60(TB) leukemia
compound,measurement,setting,value
CN1CCN(Cc2ccc(NC(=O)c3nc4ccc5[nH]ncc5c4c4c3CCCC4)cc2C(F)(F)F)CC1,GI50,RPMI-8226 leukemia,1110 nM
same,TGI,RPMI-8226 leukemia,2690 nM
same,GI50,HCT-116 colon,855 nM
same,TGI,HCT-116 colon,1710 nM
same,GI50,UACC-62 melanoma,905 nM
same,TGI,UACC-62 melanoma,1740 nM
same,GI50,OVCAR-5 ovarian,843 nM
same,TGI,OVCAR-5 ovarian,1580 nM
same,GI50,786-0 renal,895 nM
same,TGI,786-0 renal,1730 nM
same,GI50,IGROV1 ovarian,883 nM
same,TGI,IGROV1 ovarian,1670 nM
same,GI50,OVCAR-8 ovarian,998 nM
same,TGI,OVCAR-8 ovarian,2080 nM
same,GI50,DU-145 prostate,902 nM
same,TGI,DU-145 prostate,1630 nM
same,GI50,MCF7 breast,848 nM
same,TGI,MCF7 breast,1690 nM
same,GI50,SF-539 CNS,831 nM
same,TGI,SF-539 CNS,1540 nM
same,GI50,COLO 205 colon,880 nM
same,TGI,COLO 205 colon,1730 nM
same,GI50,LOX IMVI melanoma,846 nM
same,TGI,LOX IMVI melanoma,1550 nM
same,GI50,M14 melanoma,902 nM
same,TGI,M14 melanoma,1770 nM
same,GI50,EKVX NSCLC,802 nM
same,TGI,EKVX NSCLC,1530 nM
same,GI50,NCI-H460 lung,906 nM
same,TGI,NCI-H460 lung,1740 nM
same,GI50,SNB-19 CNS,868 nM
same,TGI,SNB-19 CNS,1620 nM
same,GI50,BT-549 breast,2130 nM
same,TGI,BT-549 breast,4240 nM
same,GI50,SF-295 CNS,879 nM
same,TGI,SF-295 CNS,1650 nM
same,GI50,SN12C renal,877 nM
same,TGI,SN12C renal,1650 nM
same,GI50,T-47D breast,926 nM
same,TGI,T-47D breast,2030 nM
same,GI50,SW-620 colon,892 nM
same,TGI,SW-620 colon,1740 nM
same,GI50,U251 CNS,909 nM
same,TGI,U251 CNS,1780 nM
same,GI50,UO-31 renal,785 nM
same,TGI,UO-31 renal,1480 nM
same,GI50,SF-268 CNS,865 nM
same,TGI,SF-268 CNS,1700 nM
same,GI50,K-562 leukemia,701 nM
same,TGI,K-562 leukemia,1960 nM
same,GI50,SR leukemia,469 nM
same,TGI,SR leukemia,3480 nM
same,GI50,HT29 colon,894 nM
same,TGI,HT29 colon,1810 nM
same,GI50,HOP-92 NSCLC,653 nM
same,TGI,HOP-92 NSCLC,1350 nM
same,GI50,NCI-H522 lung,922 nM
same,TGI,NCI-H522 lung,1860 nM
same,GI50,NCI-H226 lung,862 nM
same,TGI,NCI-H226 lung,1770 nM
same,GI50,ACHN renal,862 nM
same,TGI,ACHN renal,1550 nM
same,GI50,MALME-3M melanoma,764 nM
same,TGI,MALME-3M melanoma,1530 nM
same,GI50,HS 578T breast,922 nM
same,TGI,HS 578T breast,1970 nM
same,GI50,UACC-257 melanoma,920 nM
same,TGI,UACC-257 melanoma,1840 nM
same,GI50,MDA-MB-435,841 nM
same,TGI,MDA-MB-435,1560 nM
same,GI50,SK-OV-3 ovarian,7080 nM
same,TGI,SK-OV-3 ovarian,14000 nM
same,GI50,OVCAR-4 ovarian,861 nM
same,TGI,OVCAR-4 ovarian,1670 nM
same,GI50,NCI/ADR-RES ovarian,847 nM
same,TGI,NCI/ADR-RES ovarian,1580 nM
same,GI50,A498 renal,977 nM
same,TGI,A498 renal,2320 nM
same,GI50,SK-MEL-2 melanoma,1030 nM
same,TGI,SK-MEL-2 melanoma,2200 nM
same,GI50,HCT-15 colon,792 nM
same,TGI,HCT-15 colon,1520 nM
same,GI50,SNB-75 CNS,770 nM
same,TGI,SNB-75 CNS,1490 nM
same,GI50,A549 NSCLC,890 nM
same,TGI,A549 NSCLC,1790 nM
same,GI50,CAKI-1 renal,816 nM
same,TGI,CAKI-1 renal,1530 nM
same,GI50,MDA-MB-231 breast,880 nM
same,TGI,MDA-MB-231 breast,1650 nM
same,GI50,KM12 colon,860 nM
same,TGI,KM12 colon,1610 nM
same,GI50,TK-10 renal,846 nM
same,TGI,TK-10 renal,1620 nM
same,GI50,HCC-2998 colon,867 nM
same,TGI,HCC-2998 colon,1630 nM
same,GI50,CCRF-CEM leukemia,1120 nM
same,TGI,CCRF-CEM leukemia,2990 nM
same,GI50,PC-3 prostate,866 nM
same,TGI,PC-3 prostate,1660 nM
same,GI50,SK-MEL-28 melanoma,862 nM
same,TGI,SK-MEL-28 melanoma,1580 nM
same,GI50,HOP-62 NSCLC,967 nM
same,TGI,HOP-62 NSCLC,1920 nM
same,GI50,OVCAR-3 ovarian,868 nM
same,TGI,OVCAR-3 ovarian,1600 nM
same,GI50,SK-MEL-5 melanoma,852 nM
same,TGI,SK-MEL-5 melanoma,1540 nM
same,GI50,NCI-H23 lung,901 nM
same,TGI,NCI-H23 lung,1740 nM
same,GI50,RXF 393 renal,806 nM
same,TGI,RXF 393 renal,1530 nM
same,GI50,MOLT-4 leukemia,995 nM
same,TGI,MOLT-4 leukemia,2390 nM
same,GI50,HL-60(TB) leukemia,943 nM
same,TGI,HL-60(TB) leukemia,2020 nM
